Experiment: gradient 5% acetonitrile 3 min, to 50% in 2 min, to 85% in 15 min, held 3 min, 100 µL/min
Details: column: Zorbax Extend-C18 2.1 x 50 mm; eluents: water / acetonitrile, 0.1% formic acid
How it was run: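 A Zorbax Extend-C18 column (2.1 × 50 mm, 1.8 μm) run at 100 μL/min with water and acetonitrile, both containing 0.1% formic acid, separated mixtures of ~100 pure standards. The HPLC was coupled to a quadrupole time-of-flight mass spectrometer operated in positive and negative ionization mode, with dead and dwell volumes of 40 μL and 900 μL. Each retention time was taken from a computationally picked adduct peak that was then manually inspected.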

Row | Structure (SMILES) | RP-LC retention time [s]
1 | CN(C)C(CNC(=O)c1cc(-c2ccc3c(c2)OCCO3)on1)c1ccc(F)cc1 (configuration not stated) | 681
2 | CC(C)CNC(=O)c1nnn2c1COC(c1ccc(Br)cc1)C2 (configuration not stated) | 973
3 | Cc1ccc2nc(C(=O)NCc3cccc(Cl)c3)cn2c1 | 718
4 | O=C(N[C@H]1C[C@@H]2C[C@H]1CN2C(=O)c1ccoc1)c1ccccc1 | 663
5 | O=C(CC(c1ccccc1)c1ccccc1)NCCCn1ncccc1=O | 702
6 | O=S(=O)(c1ccc2nncn2c1)N(Cc1ccccc1)c1cccc(F)c1 | 851
7 | Cc1ccc2snc(C(=O)NC(C)C)c2c1 | 986
8 | C=C(C)[C@@H]1CC=C(C(=O)O)CC1 | 875
9 | CCOC(=O)c1cccc(NC(=O)CCc2c(-c3ccccc3)nc3ccccn23)c1 | 984
10 | O=C(CSc1nnc(-c2ccccc2)o1)Nc1nsc(-c2ccccc2)n1 | 793
11 | CN1C(=O)c2cccn2CC1CNC(=O)c1[nH]nc2c1COc1ccccc1-2 (configuration not stated) | 685
12 | COc1ccc(OC)c(NC(=O)NCCc2cn(C)c3ncccc23)c1 | 686
13 | CCCN1C(=O)COc2cc(-c3noc(C(=O)NCCC4=CCCCC4)n3)ccc21 | 1180
14 | COc1ccc(/C=C/c2nc(-c3ccc4oc(C)nc4c3)no2)cc1OC | 995
15 | COc1ccc(OC)c(NC2=NS(=O)(=O)C(c3ccccc3)=C2C)c1 | 948
16 | CCn1cc(-c2nc(CC(=O)Nc3ccc(F)cc3C)cs2)c2cccnc21 | 902
17 | Cc1ccc(-c2nc3cnccn3c2Nc2ccc3c(c2)OCCO3)cc1 | 841
18 | Cc1nc2ccn(Cc3cccnc3)c(=O)c2cc1C(=O)NCc1ccc2c(c1)OCO2 | 592
19 | COc1ccccc1-c1cnn2c(N3CCN(c4cccc(C)n4)CC3)cc(C)nc12 | 638
20 | COc1ccccc1/C=C/c1nc(-c2cccc(-c3ccnn3C)c2)no1 | 1200
21 | COc1ccc(CN2CC3(CCN(S(=O)(=O)c4cc(C)ccc4C)CC3)C2=O)cc1 | 932
22 | COc1ccc(CC(=O)NC(C)C(=O)Nc2nc3ccccc3[nH]2)cc1Cl (configuration not stated) | 671

Next, values leading:

Row | RP-LC retention time [s] | Structure (SMILES)
23 | 568 | CN1CCC(NC(=O)c2n[nH]c3c2CN(C(=O)c2ccccc2)CC3)CC1
24 | 689 | CCNC(=O)C1CCCN(c2nc3ncn(CC(=O)Nc4cc(F)ccc4C)c(=O)c3s2)C1 (configuration not stated)
25 | 593 | Cn1cc(CN2CCC(C(=O)NC3CCN(Cc4ccccc4)CC3)CC2)c2cc(Cl)ccc21
26 | 876 | CCNC(=O)N1CCCC(c2cccc(C(=O)NC3CCCCCC3)c2)C1 (configuration not stated)
27 | 698 | Cc1cc(C(=O)N2CCCCCC2c2nnc(C)o2)no1 (configuration not stated)
28 | 1120 | Cc1ccccc1Oc1nccnc1N1CCCC(C(=O)NC2CCCCCC2)C1 (configuration not stated)
29 | 820 | CCc1ccc(CNC(=O)C2CCCN(c3nccc(C)n3)C2)cc1 (configuration not stated)
30 | 826 | CCOC(=O)C1CCN(C(=O)c2nnc(-c3ccc(S(=O)(=O)N4CCOCC4)cc3)o2)CC1
31 | 875 | CCOc1ccc2nc(NC(=O)C3CCN(C(=O)c4ccc(-c5noc(C)n5)cc4)CC3)sc2c1
32 | 1260 | O=S(=O)(c1ccc2c(c1)CCC2)N1CCC(c2noc(-c3cccc(F)c3)n2)CC1
33 | 723 | CCCN(C)c1nccnc1OC1CCN(C(=O)c2ccoc2)C1 (configuration not stated)
34 | 719 | Cc1ccc(-n2c(N3CCC(C(=O)NC4CC4)CC3)nc3ccsc3c2=O)cc1
35 | 618 | Cc1ccc2c(C(=O)NCc3ccc(C)o3)cc(NC(=O)C3CCC3)cc2n1
36 | 1240 | CCN1C(=O)COc2ccc(-c3nc(NC(=O)CCC4CCCCC4)sc3C)cc21
37 | 672 | O=C(NC1CCCCC1)C1CCN(c2cncnc2N2CCCCC2)CC1
